# Reference: patent US12187729B2, “Compounds having PDE9A inhibitory activity, and pharmaceutical uses thereof” (KOREA RESEARCH INSTITUTE OF CHEMICAL TECHNOLOGY, priority 2018, dated 2025)
# Biological target: PDE9A (Homo sapiens (Human), UniProt O76083)
# Assay: PDE9A inhibitory activity, fluorescence polarization assay (IMAP-FP screening express kit)
# Assay type: biochemical
# Conditions: enzyme PDE9A 5 ng/ml, Fl-cGMP substrate 100 nM, room temperature 1 hour
# Experimental: The inhibitory activity of the representative compounds according to the present invention against phosphodiesterase 9A was tested based on the polarization assay (IMAP-FP screening express kit) provided by MDS (MDS Analytical Technologies, Sunyvale, CA, USA). As a buffer solution, a reaction solution (a reaction solution containing 0.01% Tween 20 provided by MDS was diluted 5 times, then 5 mM DTT is added) and a polarization detection solution (binding solution A and B provided by MDS were mixed at a ratio of 3:1 and IMAP binding reagent 1/600 was added) were prepared. 100 μM of the substrate (Fl-cGMP substrate; MDS) and 3.6 μg/ml of the enzyme PDE9A (ab54113; abeam) were prepared. 3.6 μg/ml PDE9A and 100 μM substrate were diluted to 20 ng/ml (final reaction concentration: 5 ng/ml) and 400 nM (final reaction concentration: 100 nM), respectively. The buffer solution used for all dilution and preparation processes was 1× reaction solution with 1 mM DTT added, and the polarization detection solution was used to induce polarization at the end.
# The prepared samples were dispensed on black microplates (Multiwell 384 well plates, #3573, Corning Life Sciences, Lowell, MA, USA) using a 16-channel pipette (multi 16-channel, Finnpipette, Thermo Scientific, Essex, UK). The total reaction volume per well is 20 μl. At this time, 10 μl of 2% DMSO, 5 μl of substrate solution, and 5 μl of reaction solution were used as a negative control, and 10 μl of 2% DMSO, 5 μl of substrate solution, and 5 μl of PDE9A solution were used as a positive control. As the experimental group, 10 μl of the compound prepared in Example, 5 μl of the substrate solution, and 5 μl of the PDE9A solution were used. After pretreatment between the compound and the enzyme was performed for about […] before the enzyme-substrate reaction, 5 μl of cGMP was added to induce the enzyme reaction. During the reaction, each compound, enzyme, and substrate occupied 50%, 25%, and 25% of the total volume, respectively, and they were prepared at high concentrations of 2, 4, and 4 times, respectively, immediately before addition. After the enzymatic reaction, it was shaken lightly for 1 minute and the enzyme reaction was induced at room temperature for 1 hour. Then, 60 μl of a polarization detection solution prepared in advance was added to induce polarization.
# Nanoparticles composed of trivalent metal ions are mixed in the fluorescence detection solution, which combines with phosphoric acid expose by enzymatic reaction to increase the molecular weight and induce polarization. After leaving for 2 hours at room temperature, the polarization (Fluorescence Polarization, FP) value was measured using a multilabel counter (Envision, PerkinElmer, Turku, Finland) (emission wavelength: P-535 nm, S-535 nm, excitation wavelength: 480 nm), and the result was expressed as an IC50 value, which is the concentration of the compound that inhibited PDE9A by 50% in vitro (Table 2).
# Sequence of PDE9A (O76083 whole entry): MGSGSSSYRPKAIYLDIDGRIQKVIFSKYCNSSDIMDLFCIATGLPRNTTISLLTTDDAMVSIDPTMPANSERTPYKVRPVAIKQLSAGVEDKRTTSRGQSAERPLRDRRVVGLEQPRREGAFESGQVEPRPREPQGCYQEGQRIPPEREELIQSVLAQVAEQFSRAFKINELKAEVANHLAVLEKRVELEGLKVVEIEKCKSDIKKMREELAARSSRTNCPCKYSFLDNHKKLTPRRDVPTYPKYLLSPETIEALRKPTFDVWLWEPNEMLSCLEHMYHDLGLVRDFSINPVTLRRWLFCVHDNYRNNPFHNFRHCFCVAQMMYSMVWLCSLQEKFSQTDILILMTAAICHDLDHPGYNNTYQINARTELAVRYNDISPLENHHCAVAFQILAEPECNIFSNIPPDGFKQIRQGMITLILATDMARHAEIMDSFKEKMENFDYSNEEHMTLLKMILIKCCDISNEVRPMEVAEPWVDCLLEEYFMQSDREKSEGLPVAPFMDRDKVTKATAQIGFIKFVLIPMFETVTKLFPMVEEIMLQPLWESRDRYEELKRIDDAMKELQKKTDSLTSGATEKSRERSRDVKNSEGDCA
row,Compound,IC50 [nM]
1,"Cc1nnc(NC(=O)CSc2nc3c(cnn3-c3ccccc3)c(=O)[nH]2)s1 [Example 3, N-(5-methyl-1,3,4-thiadiazol-2-yl)-2-((4-oxo-1-phenyl-4,5-dihydro-1H-pyrazolo[3,4-d]pyrimidin-6-yl)thio)acetamide]",340
2,"O=C(CSc1nc2c(cnn2-c2ccccc2)c(=O)[nH]1)Nc1nncs1 [Example 4, 2-((4-oxo-1-phenyl-4,5-dihydro-1H-pyrazolo[3,4-d]pyrimidin-6-yl)thio)-N-(1,3,4-thiadiazol-2-yl)acetamide]",230
3,"CCc1nnc(NC(=O)CSc2nc3c(cnn3-c3ccccc3)c(=O)[nH]2)s1 [Example 5, N-(5-ethyl-1,3,4-thiadiazol-2-yl)-2-((4-oxo-1-phenyl-4,5-dihydro-1H-pyrazolo[3,4-d]pyrimidin-6-yl)thio)acetamide]",180
4,O=C(CSc1nc2c(cnn2-c2ccccc2)c(=O)[nH]1)Nc1nnc(SCc2ccccc2)s1 [Example 6],14
5,"O=C(CSc1nc2c(cnn2-c2ccccc2)c(=O)[nH]1)Nc1nnc(Br)s1 [Example 7, N-(5-bromo-1,3,4-thiadiazol-2-yl)-2-((4-oxo-1-phenyl-4,5-dihydro-1H-pyrazolo[3,4-d]pyrimidin-6-yl)thio)acetamide]",12
6,O=C(CSc1nc2c(cnn2-c2ccccc2)c(=O)[nH]1)Nc1nnc(SCc2ccc(Cl)cc2)s1 [Example 8],19
7,Cc1ccc(CSc2nnc(NC(=O)CSc3nc4c(cnn4-c4ccccc4)c(=O)[nH]3)s2)cc1 [Example 9],15
8,"Cc1nnc(NC(=O)C(C)Sc2nc3c(cnn3-c3ccccc3)c(=O)[nH]2)s1 (stereo not shown) [Example 10, N-(5-methyl-1,3,4-thiadiazol-2-yl)-2-((4-oxo-1-phenyl-4,5-dihydro-1H-pyrazolo[3,4-d]pyrimidin-6-yl)thio)propanamide]",150
9,"CCSc1nnc(NC(=O)CSc2nc3c(cnn3-c3ccc(F)cc3)c(=O)[nH]2)s1 [Example 16, N-(5-(ethylthio)-1,3,4-thiadiazol-2-yl)-2-((1-(4-fluorophenyl)-4-oxo-4,5-dihydro-1H-pyrazolo[3,4-d]pyrimidin-6-yl)thio)acetamide]",27
10,"O=C(CSc1nc2c(cnn2-c2ccc(F)cc2)c(=O)[nH]1)Nc1nnc(Br)s1 [Example 17, N-(5-bromo-1,3,4-thiadiazol-2-yl)-2-((1-(4-fluorophenyl)-4-oxo-4,5-dihydro-1H-pyrazolo[3,4-d]pyrimidin-6-yl)thio)acetamide]",27
11,"CCSc1nnc(N(C)C(=O)CSc2nc3c(cnn3-c3ccccc3)c(=O)[nH]2)s1 [Example 18, N-(5-(ethylthio)-1,3,4-thiadiazol-2-yl)-N-methyl-2-((4-oxo-1-phenyl-4,5-dihydro-1H-pyrazolo[3,4-d]pyrimidin-6-yl)thio)acetamide]",470
12,"Cc1ccc(-c2nnc(NC(=O)C(C)Sc3nc4c(cnn4-c4ccccc4)c(=O)[nH]3)s2)cc1 (stereo not shown) [Example 20, 2-((4-oxo-1-phenyl-4,5-dihydro-1H-pyrazolo[3,4-d]pyrimidin-6-yl)thio)-N-(5-(p-tolyl)-1,3,4-thiadiazol-2-yl)propanamide]",19
13,"CC(C)(C)c1nnc(NC(=O)CSc2nc3c(cnn3-c3ccccc3)c(=O)[nH]2)s1 [Example 22, N-(5-(tertiary-butyl)-1,3,4-thiadiazol-2-yl)-2-((4-oxo-1-phenyl-4,5-dihydro-1H-pyrazolo[3,4-d]pyrimidin-6-yl)thio)acetamide]",100
14,"Cc1ccc(-c2nnc(NC(=O)CSc3nc4c(cnn4-c4ccccc4)c(=O)[nH]3)s2)cc1 [Example 24, 2-((4-oxo-1-phenyl-4,5-dihydro-1H-pyrazolo[3,4-d]pyrimidin-6-yl)thio)-N-(5-(p-tolyl)-1,3,4-thiadiazol-2-yl)acetamide]",41
15,"O=C(CSc1nc2c(cnn2-c2ccccc2)c(=O)[nH]1)Nc1nnc(-c2ccccc2)s1 [Example 25, N-(5-phenyl-1,3,4-thiadiazol-2-yl)-2-((4-oxo-1-phenyl-4,5-dihydro-1H-pyrazolo[3,4-d]pyrimidin-6-yl)thio)acetamide]",12
16,"O=C(CSc1nc2c(cnn2-c2ccccc2)c(=O)[nH]1)Nc1nnc(Cl)s1 [Example 30, N-(5-chloro-1,3,4-thiadiazol-2-yl)-2-((4-oxo-1-phenyl-4,5-dihydro-1H-pyrazolo[3,4-d]pyrimidin-6-yl)thio)acetamide]",18

# Now those with a lower IC50, led by results:
row,IC50 [nM],Compound
1,0.4,"O=C(CSc1nc2c(cnn2C2CCC(F)(F)CC2)c(=O)[nH]1)Nc1nnc(Cl)s1 [Example 1, 2-((1-(4,4-difluorocyclohexyl)-4-oxo-4,5-dihydro-1H-pyrazolo[3,4-d]pyrimidin-6-yl)thio)-N-(5-chloro-1,3,4-thiadiazol-2-yl)acetamide]"
2,10,"CCSc1nnc(NC(=O)CSc2nc3c(cnn3-c3ccccc3)c(=O)[nH]2)s1 [Example 2, N-(5-(ethylthio)-1,3,4-thiadiazol-2-yl)-2-((4-oxo-1-phenyl-4,5-dihydro-1H-pyrazolo[3,4-d]pyrimidin-6-yl)thio)acetamide]"
3,10,"CCSc1nnc(NC(=O)C(C)Sc2nc3c(cnn3-c3ccccc3)c(=O)[nH]2)s1 (stereo not shown) [Example 11, N-(5-(ethylthio)-1,3,4-thiadiazol-2-yl)-2-((4-oxo-1-phenyl-4,5-dihydro-1H-pyrazolo[3,4-d]pyrimidin-6-yl)thio)propanamide]"
4,7,"CC(Sc1nc2c(cnn2-c2ccccc2)c(=O)[nH]1)C(=O)Nc1nnc(Br)s1 (stereo not shown) [Example 12, N-(5-bromo-1,3,4-thiadiazol-2-yl)-2-((4-oxo-1-phenyl-4,5-dihydro-1H-pyrazolo[3,4-d]pyrimidin-6-yl)thio)propanamide]"
5,0.6,"CCSc1nnc(NC(=O)CSc2nc3c(cnn3C3CCC(F)(F)CC3)c(=O)[nH]2)s1 [Example 19, 2-((1-(4,4-difluorocyclohexyl)-4-oxo-4,5-dihydro-1H-pyrazolo[3,4-d]pyrimidine-6-yl)thio)-N-(5-(ethylthio)-1,3,4-thiadiazol-2-yl)acetamide]"
6,0.4,"O=C(CSc1nc2c(cnn2C2CCC(F)(F)CC2)c(=O)[nH]1)Nc1nnc(Br)s1 [Example 21, 2-((1-(4,4-difluorocyclohexyl)-4-oxo-4,5-dihydro-1H-pyrazolo[3,4-d]pyrimidin-6-yl)thio)-N-(5-bromo-1,3,4-thiadiazol-2-yl)acetamide]"
7,10,"O=C(CSc1nc2c(cnn2-c2ccccc2)c(=O)[nH]1)Nc1nnc(-c2ccc(F)cc2)s1 [Example 23, N-(5-(4-fluorophenyl)-1,3,4-thiadiazol-2-yl)-2-((4-oxo-1-phenyl-4,5-dihydro-1H-pyrazolo[3,4-d]pyrimidin-6-yl)thio)acetamide]"
8,9,"CCSc1nnc(NC(=O)C(Sc2nc3c(cnn3-c3ccccc3)c(=O)[nH]2)c2ccccc2)s1 (stereo not shown) [Example 26, N-(5-(ethylthio)-1,3,4-thiadiazol-2-yl)-2-((4-oxo-1-phenyl-4,5-dihydro-1H-pyrazolo[3,4-d]pyrimidin-6-yl)thio)-2-phenylacetamide]"
9,0.5,"CCSc1nnc(NC(=O)CSc2nc3c(cnn3C3CCOCC3)c(=O)[nH]2)s1 [Example 27, N-(5-(ethylthio)-1,3,4-thiadiazol-2-yl)-2-((4-oxo-1-(tetrahydro-2H-pyran-4-yl)-4,5-dihydro-1H-pyrazolo[3,4-d]pyrimidin-6-yl)thio)acetamide]"
10,0.1,"CCSc1nnc(NC(=O)C(C)Sc2nc3c(cnn3C3CCC(F)(F)CC3)c(=O)[nH]2)s1 (stereo not shown) [Example 28, 2-((1-(4,4-difluorocyclohexyl)-4-oxo-4,5-dihydro-1H-pyrazolo[3,4-d]pyrimidin-6-yl)thio)-N-(5-(ethylthio)-1,3,4-thiadiazol-2-yl)propanamide]"
11,0.3,"CCSc1nnc(NC(=O)CSc2nc3c(cnn3C3CCSCC3)c(=O)[nH]2)s1 [Example 29, N-(5-(ethylthio)-1,3,4-thiadiazol-2-yl)-2-((4-oxo-1-(tetrahydro-2H-thiopyran-4-yl)-4,5-dihydro-1H-pyrazolo[3,4-d]pyrimidin-6-yl)thio)acetamide]"
12,0.1,"CC(Sc1nc2c(cnn2C2CCC(F)(F)CC2)c(=O)[nH]1)C(=O)Nc1nnc(Br)s1 (stereo not shown) [Example 31, 2-((1-(4,4-difluorocyclohexyl)-4-oxo-4,5-dihydro-1H-pyrazolo[3,4-d]pyrimidin-6-yl)thio)-N-(5-bromo-1,3,4-thiadiazol-2-yl)propanamide]"
